# Laboratory results taken from paper PMC12615753, “Glutathione as a taste modulator: molecular mechanisms of interaction with umami and sweet taste receptors” (Food Chemistry: Molecular Sciences, 2025).
# Target: T1, hTAS1R1 H71L/rTAS1R3 (Homo sapiens, UniProt Q7RTX1, H71L)
# T1 construct: expressed in transfected cells; host or cells: HEK293T/17 (ATCC CRL-11268)
# T1 sequence (Q7RTX1 21-841 H71L): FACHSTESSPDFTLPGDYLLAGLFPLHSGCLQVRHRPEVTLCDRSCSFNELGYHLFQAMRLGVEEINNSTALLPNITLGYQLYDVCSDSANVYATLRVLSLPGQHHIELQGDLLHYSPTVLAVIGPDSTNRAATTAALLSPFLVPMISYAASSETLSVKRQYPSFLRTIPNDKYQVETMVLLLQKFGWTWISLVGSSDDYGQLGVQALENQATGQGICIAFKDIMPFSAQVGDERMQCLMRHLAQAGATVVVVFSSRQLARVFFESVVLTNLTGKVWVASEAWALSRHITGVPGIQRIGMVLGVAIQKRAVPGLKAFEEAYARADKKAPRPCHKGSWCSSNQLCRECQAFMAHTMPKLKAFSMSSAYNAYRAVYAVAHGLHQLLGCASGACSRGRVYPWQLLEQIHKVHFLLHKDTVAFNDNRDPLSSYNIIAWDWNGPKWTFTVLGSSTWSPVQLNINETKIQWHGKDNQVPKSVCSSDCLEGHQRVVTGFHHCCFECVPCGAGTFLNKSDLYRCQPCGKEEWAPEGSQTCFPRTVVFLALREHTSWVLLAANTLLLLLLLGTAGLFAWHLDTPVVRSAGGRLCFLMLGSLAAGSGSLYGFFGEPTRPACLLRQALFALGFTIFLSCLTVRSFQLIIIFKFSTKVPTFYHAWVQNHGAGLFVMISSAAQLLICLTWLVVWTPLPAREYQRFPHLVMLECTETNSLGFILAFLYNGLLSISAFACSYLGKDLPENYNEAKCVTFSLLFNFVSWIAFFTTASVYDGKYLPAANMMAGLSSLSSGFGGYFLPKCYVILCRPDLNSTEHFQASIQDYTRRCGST
# T1 sequence (Q923K1 21-858 partner): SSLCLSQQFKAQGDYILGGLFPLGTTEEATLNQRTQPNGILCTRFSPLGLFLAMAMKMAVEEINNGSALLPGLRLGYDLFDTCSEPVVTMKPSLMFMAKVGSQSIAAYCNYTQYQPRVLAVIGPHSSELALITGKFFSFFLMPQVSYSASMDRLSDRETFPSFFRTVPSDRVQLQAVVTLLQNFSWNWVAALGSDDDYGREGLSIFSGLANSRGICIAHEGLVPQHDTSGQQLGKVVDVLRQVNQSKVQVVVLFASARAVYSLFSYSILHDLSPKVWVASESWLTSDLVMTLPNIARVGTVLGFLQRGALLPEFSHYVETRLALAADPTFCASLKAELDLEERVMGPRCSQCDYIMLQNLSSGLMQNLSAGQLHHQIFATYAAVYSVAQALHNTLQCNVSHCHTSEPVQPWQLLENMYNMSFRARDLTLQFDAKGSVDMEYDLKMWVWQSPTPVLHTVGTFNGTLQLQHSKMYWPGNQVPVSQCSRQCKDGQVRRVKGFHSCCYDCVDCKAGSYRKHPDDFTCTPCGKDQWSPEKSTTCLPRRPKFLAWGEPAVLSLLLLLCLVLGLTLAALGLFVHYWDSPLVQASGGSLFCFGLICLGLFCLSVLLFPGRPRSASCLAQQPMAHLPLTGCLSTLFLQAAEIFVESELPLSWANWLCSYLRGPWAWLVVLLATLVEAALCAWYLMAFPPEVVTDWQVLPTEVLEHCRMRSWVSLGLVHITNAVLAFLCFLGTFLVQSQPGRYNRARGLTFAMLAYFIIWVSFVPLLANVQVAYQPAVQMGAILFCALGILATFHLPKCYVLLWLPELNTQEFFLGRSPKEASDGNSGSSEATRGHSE
# Test: Calcium assay, hTAS1R1 mutant co-expressed with rTAS1R3
# Format: cell-based, rat
compound,measurement,setting,value
"N[C@@H](CCC(=O)N[C@@H](CS)C(=O)NCC(=O)O)C(=O)O [GSH, γ-L-glutamyl-L-cysteinyl-glycine]",EC50,,2270 ± 123 µM
same,"response to the agonist alone, vs WT",H71L,significantly increased the initial amplitude
same,Max ∆F/F0,"H71L, GSH",1.24 ± 0.0
same,R1 = mutant EC50/WT EC50,"H71L, GSH",0.9
